According to patent US20100144712A1 (priority 2007, published 2010):
Values after ≈ are worked out from the molar mass of the structure shown. Like-named read-outs stand apart in the source and are kept apart here.

Legend:
Assay type in all cases: cell-based
[1] = test system: Candida albican ATCC 96901; test: In vitro antifungal activity (MIC80), Candida albican ATCC 96901; settings: Candida, ATCC96901; Table 2, ATCC 96901; read-out: Minimal inhibitory concentration (MIC80)
Method in brief: (§1)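 MIC80 is the lowest concentration that cuts growth by 80% compared with untreated cells, with alamarBlue as the growth read-out. Compounds were serially diluted in RPMI 1640 (0.25–256 […]; DMSO 2% v/v final) and added to 1.0×10^3–5.0×10^3 CFU/ml yeast suspensions, in duplicate runs.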

[2] = test system: Candida albican ATCC 64550; test: In vitro antifungal activity (MIC80), Candida albican ATCC 64550; settings: Candida, ATCC64550; Table 2, 64550; read-out: Minimal inhibitory concentration (MIC80)
Method in brief: as §1

[3] = test system: Candida albican ATCC MYA-1003; test: In vitro antifungal activity (MIC80), Candida albican ATCC MYA-1003; settings: Candida; Table 2, MYA 1003; read-out: Minimal inhibitory concentration (MIC80)
Method in brief: as §1

[4] = test system: Candida albican ATCC MYA-575; test: In vitro antifungal activity (MIC80), Candida albican ATCC MYA-575; settings: Candida; Table 2, MYA 575; read-out: Minimal inhibitory concentration (MIC80)
Method in brief: as §1

[5] = test system: Aspergillus niger ATCC 9142; test: In vitro antifungal activity (MIC80), Aspergillus niger ATCC 9142; settings: Aspergillus niger, ATCC9142; Table 3, ATCC 9142; read-out: Minimal inhibitory concentration (MIC80)
Description: (§2) In vitro antifungal activities of the inventive antifungal compounds were evaluated using test strains including Candida albican (ATCC 90873, 204276, 62342, 64124, 64550, 96901, MYA-573, MYA-574, MYA-575, MYA-576, MYA-1003) and Aspergillus fumigatus (ATCC 16424). Test samples and positive control samples were prepared by dissolving the inventive compounds and comparative compounds, i.e., amphotericin B, fluconazole and itraconazole, in DMSO, respectively, and each successively diluted with medium to obtain test and positive control solutions having test compound concentrations of 0.125 μg/ml to a maximum concentration not generating turbidity. Minimal inhibitory concentration (MIC80) of each compound was determined as the lowest concentration of the test compounds required to reduce growth by 80% relative to a control strain not treated.
(§3) 3) Preparation of test samples: the inventive compounds and comparative compounds were each diluted with DMSO to obtain 1 to 2 ml of a test sample in a concentration of 100-folds of the determining maximum concentration (256 μg/ml).
(§4) The test samples were each successively diluted with RPMI 1640 to obtain test solutions having concentrations of […] in a 12×75 mm sterilized disposable culture tube. The final concentration of DMSO was adjusted to […] (v/v).
(§5) Candida albican strains were each subcultured in Sabourad Dextrose Agar, YM Agar or Potato Dextrose Agar medium at 35° C. for 2˜3 days. In the case of yeasts, a single colony was taken from prominent colonies and suspended in 0.85% sterile physiological saline solution and the turbidity of the suspension was adjusted to 80˜82% at 530 nm, and then diluted 50-fold with RPMI 1640 medium to 1.0×10^3˜5.0×10^3 CFU/ml. The turbidity of fungi was adjusted to 80˜82% and the suspension was diluted 50-fold to […]. Aspergillus fumigatus strains were subcultured in Malt Extract Agar for 7˜10 days, and a single colony was taken from prominent colonies and suspended in 0.85% sterile physiological saline solution and the suspension was adjusted to 0.108 at 530 nm, and then diluted 1000-fold with RPMI 1640 medium to 0.4×10^2˜5×10^4 CFU/ml. The turbidity of fungi was adjusted to 80˜82% and the suspension was diluted 50-fold to 0.4102˜0.5104 CFU/ml.
(§6) The strain solutions thus obtained were each seeded into a sterilized 96-well microplate, 0.1 ml of each test solution were added thereto, and […] of alamarblue was treated to each well (Biosource, #DAL1100). This procedure was repeated 2 times.
(§7) Minimal inhibitory concentration (MIC80) of each compound was determined as the lowest concentration of the test compounds required to reduce growth by 80% relative to a control strain not treated.
(§8) MIC80 of each of the compounds of which antifungal activities can be confirmed by Table 2 was determined using other test strains, i.e., Aspergillus fumigatus ATCC 16424 and MYA-1163, Aspergillus terreus ATCC 28301, Aspergillus flavus ATCC MYA-1004, and Aspergillus niger ATCC 9142.

[6] = test system: Aspergillus fumigatus (ATCC 16424); test: In vitro antifungal activity (MIC80), Aspergillus fumigatus ATCC 16424; settings: Aspergillus fumigatus, read-out: Minimal inhibitory concentration (MIC80)
Method in brief: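 Broth dilution in RPMI 1640 with 2% (v/v) final DMSO; A. fumigatus inoculum from Malt Extract Agar subculture diluted 1000-fold to 0.4×10^2˜5×10^4 CFU/ml, alamarblue added, repeated 2 times. MIC80 is lowest concentration reducing growth 80% versus untreated control.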

[7] = test system: Candida albican ATCC MYA-576; test: In vitro antifungal activity (MIC80), Candida albican ATCC MYA-576; settings: Candida; Table 2, MYA 576; read-out: Minimal inhibitory concentration (MIC80)
Method in brief: as §1

[8] = test system: Aspergillus terreus ATCC 28301; test: In vitro antifungal activity (MIC80), Aspergillus terreus ATCC 28301; settings: Aspergillus terreus, ATCC28301; Table 3, ATCC 28301; read-out: Minimal inhibitory concentration (MIC80)
Description: as §2, §3, §4, §5, §6, §7, §8

[9] = test system: Candida albican ATCC MYA-573; test: In vitro antifungal activity (MIC80), Candida albican ATCC MYA-573; settings: Candida; Table 2, MYA 573; read-out: Minimal inhibitory concentration (MIC80)
Method in brief: as §1

[10] = test system: Candida albican ATCC 62342; test: In vitro antifungal activity (MIC80), Candida albican ATCC 62342; settings: Candida, ATCC62342; Table 2, 62342; read-out: Minimal inhibitory concentration (MIC80)
Method in brief: as §1

[11] = test system: Aspergillus flavus ATCC MYA-1004; test: In vitro antifungal activity (MIC80), Aspergillus flavus ATCC MYA-1004; settings: Aspergillus flavus; Table 3, MYA-1004; read-out: Minimal inhibitory concentration (MIC80)
Description: as §2, §3, §4, §5, §6, §7, §8

[12] = test system: Candida albican ATCC MYA-574; test: In vitro antifungal activity (MIC80), Candida albican ATCC MYA-574; settings: Candida; Table 2, MYA 574; read-out: Minimal inhibitory concentration (MIC80)
Method in brief: as §1

[13] = test system: Candida albican ATCC 64124; test: In vitro antifungal activity (MIC80), Candida albican ATCC 64124; settings: Candida, ATCC64124; Table 2, 64124; read-out: Minimal inhibitory concentration (MIC80)
Method in brief: as §1

[14] = test system: Aspergillus fumigatus MYA-1163; test: In vitro antifungal activity (MIC80), Aspergillus fumigatus MYA-1163; settings: Aspergillus fumigatus, MYA1163; Table 3, MYA-1163; read-out: Minimal inhibitory concentration (MIC80)
Description: as §2, §3, §4, §5, §6, §7, §8

[15] = test system: Candida albican ATCC 90873; test: In vitro antifungal activity (MIC80), Candida albican ATCC 90873; settings: Candida, ATCC90873; Table 2, ATCC 90873; read-out: Minimal inhibitory concentration (MIC80)
Method in brief: as §1

Row | MIC80 [1] | MIC80 [2] | MIC80 [3] | MIC80 [4] | MIC80 [5] | MIC80 ([6]; ATCC16424, Table 2, ATCC 16424) | MIC80 ([6]; ATCC16424, Table 3, ATCC 16424) | MIC80 [7] | MIC80 [8] | MIC80 [9] | MIC80 [10] | MIC80 [11] | MIC80 [12] | MIC80 [13] | MIC80 [14] | MIC80 [15] | SMILES
1 | 2 µg/mL (≈ 3.96 µM) | 0.5 µg/mL (≈ 0.99 µM) | > 128 µg/mL | 0.125 µg/mL (≈ 0.248 µM) | 2 µg/mL (≈ 3.96 µM) | 0.5 µg/mL (≈ 0.99 µM) | 0.5 µg/mL (≈ 0.99 µM) | 0.125 µg/mL (≈ 0.248 µM) | 1 µg/mL (≈ 1.98 µM) | 0.125 µg/mL (≈ 0.248 µM) | 0.125 µg/mL (≈ 0.248 µM) | 1 µg/mL (≈ 1.98 µM) | 0.25 µg/mL (≈ 0.495 µM) | 8 µg/mL (≈ 15.8 µM) | 1 µg/mL (≈ 1.98 µM) | 0.125 µg/mL (≈ 0.248 µM) | C[C@@H](N1CCN(c2nc3ccc(Cl)cc3s2)CC1)[C@](O)(Cn1cncn1)c1ccc(F)cc1F [Example 4, (2R,3R)-3-(4-(6-chlorobenzothiazol-2-yl)piperazin-1-yl)-2-(2,4-difluorophenyl)-1-(1H-1,2,4-triazol-1-yl)butan-2-ol]
2 | 32 µg/mL (≈ 74.7 µM) | 2 µg/mL (≈ 4.67 µM) | 64 µg/mL (≈ 149 µM) | 0.125 µg/mL (≈ 0.292 µM) | 1 µg/mL (≈ 2.33 µM) | 0.125 µg/mL (≈ 0.292 µM) | 0.125 µg/mL (≈ 0.292 µM) | 0.125 µg/mL (≈ 0.292 µM) | 1 µg/mL (≈ 2.33 µM) | 1 µg/mL (≈ 2.33 µM) | 0.25 µg/mL (≈ 0.583 µM) | 0.5 µg/mL (≈ 1.17 µM) | 2 µg/mL (≈ 4.67 µM) | 16 µg/mL (≈ 37.3 µM) | 0.5 µg/mL (≈ 1.17 µM) | 0.125 µg/mL (≈ 0.292 µM) | C[C@@H](N1CCCN(c2ccccn2)CC1)[C@](O)(Cn1cncn1)c1ccc(F)cc1F [Example 38, (2R,3R)-2-(2,4-difluorophenyl)-3-(4-(pyridin-2-yl)-1,4-diazepan-1-yl)-1-(1H-1,2,4-triazol-1-yl)butan-2-ol]
3 | 2 µg/mL (≈ 4.09 µM) | 0.5 µg/mL (≈ 1.02 µM) | > 128 µg/mL | 0.125 µg/mL (≈ 0.256 µM) | 1 µg/mL (≈ 2.05 µM) | 0.125 µg/mL (≈ 0.256 µM) | 0.125 µg/mL (≈ 0.256 µM) | 0.125 µg/mL (≈ 0.256 µM) | 0.5 µg/mL (≈ 1.02 µM) | 0.25 µg/mL (≈ 0.511 µM) | 0.25 µg/mL (≈ 0.511 µM) | 0.25 µg/mL (≈ 0.511 µM) | 0.25 µg/mL (≈ 0.511 µM) | 4 µg/mL (≈ 8.18 µM) | 0.25 µg/mL (≈ 0.511 µM) | 0.125 µg/mL (≈ 0.256 µM) | C[C@@H](N1CCN(c2nc3ccc(Cl)cc3o2)CC1)[C@](O)(Cn1cncn1)c1ccc(F)cc1F [Example 6, (2R,3R)-3-(4-(6-chlorobenzooxazol-2-yl)piperazin-1-yl)-2-(2,4-difluorophenyl)-1-(1H-1,2,4-triazol-1-yl)butan-2-ol]
4 | > 128 µg/mL | 32 µg/mL (≈ 104 µM) | > 128 µg/mL | 16 µg/mL (≈ 52.2 µM) | > 128 µg/mL | > 128 µg/mL | > 128 µg/mL | 64 µg/mL (≈ 209 µM) | > 128 µg/mL | > 128 µg/mL | 8 µg/mL (≈ 26.1 µM) | > 128 µg/mL | > 128 µg/mL | > 128 µg/mL | > 128 µg/mL | 4 µg/mL (≈ 13.1 µM) | OC(Cn1cncn1)(Cn1cncn1)c1ccc(F)cc1F [F, fluconazole, reference compound]
